Article PMC6099623, “Novel Thiazolidinone/Thiazolo[3,2-a]Benzimidazolone-Isatin Conjugates as Apoptotic Anti-proliferative Agents Towards Breast Cancer: One-Pot Synthesis and In Vitro Biological Evaluation” (Molecules : A Journal of Synthetic Chemistry and Natural …, 2018)

Experiments:
[1] = tested on: MCF-7 breast cancer cell line; test: Crystal Violet antiproliferative assay, MCF-7; type: cell-based; conditions: Homo sapiens, MCF7, 48 h, Crystal Violet assay; 48 h of incubation; mean ± S.D. of three separate experiments
Method: (§1) The in vitro antiproliferative activity of the newly synthesized conjugates 4a–n and 7a–d was evaluated against breast cancer MDA-MB-231 and MCF-7 cell lines, following the Crystal Violet (CV) cell cytotoxicity assay. Doxorubicin was included in this assay as a positive control, and Sunitinib was used as a reference drug.
(§2) Breast cancer cell lines MDA-MB-231 and MCF-7 cells were obtained from VACSERA Tissue Culture Unit. The cells were propagated in DMEM supplemented with 10% heat-inactivated fetal bovine serum, 1% L-glutamine (2.5 mM), HEPES (4-(2-hydroxyethyl)-1-piperazineethanesulfonic acid) buffer (10 mM) and 50 µg/mL gentamycin. All cells were maintained at 37 °C in a humidified atmosphere with 5% CO2 and were sub-cultured two times a week. Cytotoxicity was determined following the Crystal Violet (CV) cell cytotoxicity assay.
(§3) Test samples were dissolved in DMSO and kept at a stock concentration of 100 mM. Exponentially growing cells were collected using 0.25% Trypsin-EDTA and seeding was done at a density of 3000 cells/well in 96-well plates. After 24 h, the monolayer cultured cells were washed with sterile phosphate buffered saline (0.01 M pH 7.2) and simultaneously the cells were treated with […] from 10 different dilutions of the test compounds as well as Doxorubicin was […] Control wells were exposed to the same concentration of vehicle, DMSO (1%) used in the highest concentration of the test samples. Cell viability was >99% compared to untreated cells. The number of the surviving cells was determined by staining the cells with crystal violet followed by cell lysing using 33% glacial acetic acid. The absorbance was measured at 490 nm using ELISA reader (Thermo Fisher Scientific, Waltham, MA, USA) after gentle shaking. The absorbance values from untreated cells were considered as 100% proliferation.
(§4) The number of viable cells was determined using ELISA reader as previously mentioned and the percentage of viability was calculated as […] where ODt is the mean optical density of wells treated with the test sample and ODc is the mean optical density of untreated cells. The 50% inhibitory concentration (IC50) was estimated from graphic plots of the dose response curve for each conc. using GraphPad Prism software, Version 5 (San Diego, CA, USA). The data presented are the mean of at least three separate experiments.

[2] = tested on: MDA-MB-231 breast cancer cell line; test: Crystal Violet antiproliferative assay, MDA-MB-231; type: cell-based; conditions: 48 h of incubation, mean ± S.D. of three separate experiments
Method: as §1, §2, §3, §4

[3] = tested on: breast epithelial cell line (MCF-10A); test: Crystal violet cytotoxicity towards nontumorigenic MCF-10A; type: cell-based, human; conditions: for IC50: Homo sapiens, MCF-10A, nontumorigenic cells, mean ± S.D. of three separate experiments; for Selectivity Index (MCF-10A/MDA-MB-231): ratio of IC50 MCF-10A to IC50 MDA-MB-231
Method: (§5) The cytotoxic activity of the active conjugates towards MDA-MB-231 cells (4c–e, 4g, 4l–n and 7a–d) was examined against nontumorigenic human lung fibroblast cell line (WI-38) and human breast epithelial cell line (MCF-10A) to investigate the potential safety of the newly prepared conjugates towards the normal cells. […] The results were expressed as IC50 values, and selectivity index was calculated (Table 2).
(§6) The cytotoxic activity of the active conjugates towards nontumorigenic human lung fibroblast cell line (WI-38) and human breast epithelial cell line (MCF-10A) was determined using Crystal violet (CV) cell cytotoxicity assay according to the previously published procedures.

[4] = tested on: lung fibroblast cell line (WI-38); test: Crystal violet cytotoxicity towards nontumorigenic WI-38; type: cell-based; conditions: Homo sapiens, nontumorigenic cells, mean ± S.D. of three separate experiments
Method: as §5, §6

| Structure (SMILES) | IC50 [1] [µM] | IC50 ([2]; Homo sapiens, MDA-MB-231, 48 h) [µM] | melting point [°C] | IC50 [2] [µM] | IC50 [3] [µM] | Selectivity Index (MCF-10A/MDA-MB-231) [3] | IC50 [4] [µM] |
| --- | --- | --- | --- | --- | --- | --- | --- |
| O=C1Nc2ccccc2C1=C1SC(=Nc2ccccc2)N(c2ccccc2)C1=O [Compound 4a, 5-(2-Oxoindolin-3-ylidene)-3-phenyl-2-(phenylimino)thiazolidin-4-one] | > 200 | > 200 | – | – | – | – | – |
| O=C1Nc2ccc(Cl)cc2C1=C1SC(=Nc2ccccc2)N(c2ccccc2)C1=O [Compound 4c, 5-(5-Chloro-2-oxoindolin-3-ylidene)-3-phenyl-2-(phenylimino)thiazolidin-4-one] | 29.2 ± 2.5 | 24.1 ± 2.1 | – | – | 113 ± 5.9 | 4.7 | 87.2 ± 5.2 |
| COc1ccc2c(c1)C(=C1SC(=Nc3ccccc3)N(c3ccccc3)C1=O)C(=O)N2 [Compound 4e, 5-(5-Methoxy-2-oxoindolin-3-ylidene)-3-phenyl-2-(phenylimino)thiazolidin-4-one] | 52.9 ± 5 | 42.6 ± 3.4 | – | – | 89.6 ± 5.1 | 2.1 | 193 ± 10.6 |
| Cc1cc(C)c2c(c1)C(=C1SC(=Nc3ccccc3)N(c3ccccc3)C1=O)C(=O)N2 [Compound 4g, 5-(5,7-Dimethyl-2-oxoindolin-3-ylidene)-3-phenyl-2-(phenylimino)thiazolidin-4-one] | – | 43.6 ± 3.1 | > 300 | – | 142 ± 7.9 | 3.25 | 120 ± 7.8 |
| O=C1Nc2ccc(Cl)cc2C1=c1sc2nc3ccccc3n2c1=O [Compound 7a, 2-(5-Chloro-2-oxoindolin-3-ylidene)benzo[4,5]imidazo[2,1-b]thiazol-3(2H)-one] | 127 ± 9.9 | 47.2 ± 3.8 | > 300 | – | 234 ± 9.6 | 5.0 | 353 ± 17.1 |
| Cc1ccc2c(c1)C(=c1sc3nc4ccccc4n3c1=O)C(=O)N2 [Compound 7c, 2-(5-Methyl-2-oxoindolin-3-ylidene)benzo[4,5]imidazo[2,1-b]thiazol-3(2H)-one] | 48.2 ± 2.7 | 40.3 ± 2.5 | > 300 | – | 242 ± 11.5 | 6.0 | 192 ± 10.8 |
| Cc1cc(C)c2c(c1)C(=c1sc3nc4ccccc4n3c1=O)C(=O)N2 [Compound 7d, 2-(5,7-Dimethyl-2-oxoindolin-3-ylidene)benzo[4,5]imidazo[2,1-b]thiazol-3(2H)-one] | 27.6 ± 2.4 | 23.5 ± 1 | > 300 | – | 250 ± 9.8 | 10.7 | 234 ± 15.4 |
| COc1cccc2c1C(=O)c1c(O)c3c(c(O)c1C2=O)C[C@@](O)(C(=O)CO)C[C@@H]3O[C@H]1C[C@H](N)[C@H](O)[C@H](C)O1 [Dox., Doxorubicin, reference compound] | 3.8 ± 0.4 | 4.7 ± 0.4 | – | – | – | – | – |
| CCN(CC)CCNC(=O)c1c(C)[nH]c(/C=C2\C(=O)Nc3ccc(F)cc32)c1C [Sunitinib, reference compound] | 3.4 ± 0.3 | 5.5 ± 0.5 | – | – | – | – | – |

Now from value to molecule, other results behind:

| IC50 [1] [µM] | IC50 ([2]; Homo sapiens, MDA-MB-231, 48 h) [µM] | melting point [°C] | IC50 [2] [µM] | Structure (SMILES) | IC50 [3] [µM] | Selectivity Index (MCF-10A/MDA-MB-231) [3] | IC50 [4] [µM] |
| --- | --- | --- | --- | --- | --- | --- | --- |
| 58.5 ± 3.2 | 108 ± 8.2 | > 300 | – | O=C1Nc2ccc(F)cc2C1=C1SC(=Nc2ccccc2)N(c2ccccc2)C1=O [Compound 4b, 5-(5-Fluoro-2-oxoindolin-3-ylidene)-3-phenyl-2-(phenylimino)thiazolidin-4-one] | – | – | – |
| 17.1 ± 1.1 | 15.7 ± 0.9 | – | – | O=C1Nc2ccc(Br)cc2C1=C1SC(=Nc2ccccc2)N(c2ccccc2)C1=O [Compound 4d, 5-(5-Bromo-2-oxoindolin-3-ylidene)-3-phenyl-2-(phenylimino)thiazolidin-4-one] | 80.7 ± 3.4 | 5.1 | 65.5 ± 4.2 |
| 22.8 ± 2 | 60.9 ± 4.2 | – | – | Cc1ccc2c(c1)C(=C1SC(=Nc3ccccc3)N(c3ccccc3)C1=O)C(=O)N2 [Compound 4f, 5-(5-Methyl-2-oxoindolin-3-ylidene)-3-phenyl-2-(phenylimino)thiazolidin-4-one] | – | – | – |
| 56 ± 3.7 | 51.7 ± 2.1 | > 300 | – | Cc1ccc(N=C2SC(=C3C(=O)Nc4ccccc43)C(=O)N2c2ccc(C)cc2)cc1 [Compound 4h, 5-(2-Oxoindolin-3-ylidene)-3-(p-tolyl)-2-(p-tolylimino)thiazolidin-4-one] | – | – | – |
| 105 ± 7.5 | 152 ± 11.5 | > 300 | – | Cc1ccc(N=C2SC(=C3C(=O)Nc4ccc(F)cc43)C(=O)N2c2ccc(C)cc2)cc1 [Compound 4i, 5-(5-Fluoro-2-oxoindolin-3-ylidene)-3-(p-tolyl)-2-(p-tolylimino)thiazolidin-4-one] | – | – | – |
| > 200 | 50.8 ± 3.5 | > 300 | – | Cc1ccc(N=C2SC(=C3C(=O)Nc4ccc(Cl)cc43)C(=O)N2c2ccc(C)cc2)cc1 [Compound 4j, 5-(5-Chloro-2-oxoindolin-3-ylidene)-3-(p-tolyl)-2-(p-tolylimino)thiazolidin-4-one] | – | – | – |
| > 200 | > 200 | > 300 | – | Cc1ccc(N=C2SC(=C3C(=O)Nc4ccc(Br)cc43)C(=O)N2c2ccc(C)cc2)cc1 [Compound 4k, 5-(5-Bromo-2-oxoindolin-3-ylidene)-3-(p-tolyl)-2-(p-tolylimino)thiazolidin-4-one] | – | – | – |
| 53.5 ± 3.6 | 47.1 ± 4.1 | > 300 | 47.2 ± 4.1 | COc1ccc2c(c1)C(=C1SC(=Nc3ccc(C)cc3)N(c3ccc(C)cc3)C1=O)C(=O)N2 [Compound 4l, 5-(5-Methoxy-2-oxoindolin-3-ylidene)-3-(p-tolyl)-2-(p-tolylimino)thiazolidin-4-one] | 157 ± 6.8 | 3.3 | 176 ± 11.3 |
| 23.7 ± 1.9 | 36.3 ± 2.9 | > 300 | – | Cc1ccc(N=C2SC(=C3C(=O)Nc4c(C)cc(C)cc43)C(=O)N2c2ccc(C)cc2)cc1 [Compound 4n, 5-(5,7-Dimethyl-2-oxoindolin-3-ylidene)-3-(p-tolyl)-2-(p-tolylimino)thiazolidin-4-one] | 154 ± 5.2 | 4.2 | 218 ± 13.5 |
